Test results from paper PMC11018872, “Dynamic inter-domain transformations mediate the allosteric regulation of human 5, 10-methylenetetrahydrofolate reductase” (Nature Communications, 2024).

Legend:
Format in all cases: binding
[1] = target: T1, 5,10-methylenetetrahydrofolate reductase (MTHFR) (Homo sapiens, UniProt P42898); assay: cryo-EM structure at […] Å (SAM-bound state)
T1 construct: MTHFRFL aa 1–656

[2] = target: T1, 5,10-methylenetetrahydrofolate reductase (MTHFR); assay: ITC; cryo-EM structures at […] and […] Å
[3] = target: T1, 5,10-methylenetetrahydrofolate reductase (MTHFR); assay: ITC; cryo-EM structure at […] Å; DSF; HPLC activity assay

T1 sequence (P42898 whole entry, the tested form may be a part): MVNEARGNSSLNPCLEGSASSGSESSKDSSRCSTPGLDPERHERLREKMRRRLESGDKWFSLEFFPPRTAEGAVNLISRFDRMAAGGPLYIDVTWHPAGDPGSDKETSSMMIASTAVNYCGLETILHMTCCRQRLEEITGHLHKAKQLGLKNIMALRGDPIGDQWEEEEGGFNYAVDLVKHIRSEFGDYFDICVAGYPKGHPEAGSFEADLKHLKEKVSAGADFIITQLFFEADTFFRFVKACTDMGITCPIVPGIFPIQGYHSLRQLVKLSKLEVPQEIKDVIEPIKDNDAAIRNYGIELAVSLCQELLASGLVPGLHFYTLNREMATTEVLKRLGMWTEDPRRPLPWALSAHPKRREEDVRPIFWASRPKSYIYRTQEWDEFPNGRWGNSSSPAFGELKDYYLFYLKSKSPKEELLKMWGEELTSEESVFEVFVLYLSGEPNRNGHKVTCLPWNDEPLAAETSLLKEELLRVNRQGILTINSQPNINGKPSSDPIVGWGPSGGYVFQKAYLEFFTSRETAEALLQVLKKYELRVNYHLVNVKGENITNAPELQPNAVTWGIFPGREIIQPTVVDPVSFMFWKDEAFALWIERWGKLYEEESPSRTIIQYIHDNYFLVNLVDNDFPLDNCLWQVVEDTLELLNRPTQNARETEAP

Q: With Cc1cc2nc3c(=O)[nH]c(=O)nc-3n(C[C@H](O)[C@H](O)[C@H](O)COP(=O)(O)OP(=O)(O)OC[C@H]3O[C@@H](n4cnc5c(N)ncnc54)[C@H](O)[C@@H]3O)c2cc1C [FAD, flavin adenine dinucleotide] as the compound, how does the “cryo-EM structure at 2.9 Å (SAM-bound state)” value [1] read?
A: FAD was found in both CD active sites of the homodimer (Fig. 2c) with clear electron densities

Q: Which Kd [2] does the source give for Nc1ncnc2c1ncn2[C@@H]1O[C@H](CSCC[C@H](N)C(=O)O)[C@@H](O)[C@H]1O [SAH, S-adenosyl-L-homocysteine] here?
A: 380 to 390 nM

Q: How did the Kd [3] turn out when C[S+](CC[C@H](N)C(=O)[O-])C[C@H]1O[C@@H](n2cnc3c(N)ncnc32)[C@H](O)[C@@H]1O (stereo partly drawn) [SAM, S-adenosyl-L-methionine] was run?
A: 860 to 990 nM
